The values below come from US7205322B2, “Thiazolidine compounds as calcium sensing receptor modulators” (Bristol-Myers Squibb Company, priority 2003, dated 2007).

The term melting point denotes the temperature of the solid-liquid transition.

The conditions of series [1]: intravenous bolus injection; cited from earlier work.
For series [2] the following is noted: OVX rats; oral administration; in the presence of an anti-resorptive agent (Gowen et al. 2000); cited from earlier work.
The conditions of series [3]: postmenopausal women; placebo-controlled trial (Neer et al. 2001); cited from earlier work.

Counter-ions that a name gives are not always drawn.

Molecule `COc1ccc(CC(C)(C)NC[C@H](O)[C@H]2CSCN2Cc2cccc(C#N)c2)cc1` (stereo in doubt) (as salt: hydrochloride) [Example 3, 3-(4-{1-Hydroxy-2-[2-(4-methoxy-phenyl)-1,1-dimethyl-ethylamino]-ethyl}-thiazolidin-3-ylmethyl)-benzonitrile] registered a melting point of 158 to 163 °C.
The molecule `CC(C)(Cc1ccc2ccccc2c1)NC[C@H](O)[C@H]1CSCN1Cc1ccc(SCc2ccco2)c([N+](=O)[O-])c1` (stereo in doubt) [Example 4, 2-(1,1-Dimethyl-2-naphthalen-2-yl-ethylamino)-1-{3-[4-(furan-2-ylmethylsulfanyl)-3-nitro-benzyl]-thiazolidin-4-yl}-ethanol] showed a melting point of 80 to 85 °C.
Consider `CC(C)(Cc1ccc2ccccc2c1)NC[C@@H](O)COc1cccc(Cl)c1C#N` [NPS-2143], for which, in series [1], the “effect on serum PTH” value was “transient increase in serum PTH”. Also, in series [2], the “effect on bone mass” value was “increase in bone mass”.
Consider “PTH peptide fragment (1–34): PTH peptide fragment (1–34), parathyroid hormone fragment; stimulator of bone formation (SVSEIQLMHNLGKHLNSMERVEWLRKKLQDVHNF; Parathyroid hormone; UniProt P01270 32-65, looked up, fragment)”, for which, in series [3], the “reduction of the risk of non-traumatic, non-spine fractures” value is listed as 54% and the “reduction of the risk of spine fractures” value is 65%.
